“And” between values parts separate entries of the source, which are not always exact repeats. Equal entries are not always repeated.
Assays:
[1] = Long-term observation stability test (16° C., relative humidity 60±5%, 12 months); assay type: physicochemical; details: RH 60±5%; for Related substances (%): HPLC
Description: (§1) Chromatographic conditions include:
(§2) HPLC purity is detected according to the method in the following embodiments.

[2] = Hygrothermal acceleration stability test (30° C., relative humidity 75±5%, 6 months); assay type: physicochemical; details: RH 75±5%; for Related substances (%): HPLC
Description: as §1, §2

Row | Compound | Content (%) ([1]; 0 months) | Related substances (%) ([1]; 0 months) | Content (%) ([1]; 3 months) | Related substances (%) ([1]; 3 months) | Content (%) ([1]; 6 months) | Related substances (%) ([1]; 6 months) | Content (%) ([1]; 9 months) | Related substances (%) ([1]; 9 months) | Content (%) ([1]; 12 months) | Related substances (%) ([1]; 12 months) | Content (%) ([2]; 0 months) | Related substances (%) ([2]; 0 months) | Content (%) ([2]; 1 month) | Related substances (%) ([2]; 1 month) | Content (%) ([2]; 2 months) | Related substances (%) ([2]; 2 months) | Content (%) ([2]; 3 months) | Related substances (%) ([2]; 3 months) | Content (%) ([2]; 6 months) | Related substances (%) ([2]; 6 months)
1 | calcium dibutyryladenosine cyclophosphate 2.3 hydrates [DBC-Ca•2.3H2O crystals, reference compound] | 90.2% | 5.3% | 90.0% | 5.3% | 89.9% | 5.5% | 89.7% | 5.6% | 89.6% | 5.9% | 90.2% | 5.3% | 90.1% | 5.5% | 89.8% | 5.8% | 89.7% | 5.9% | 89.3% | 6.1%
2 | CCCC(=O)Nc1ncnc2c1ncn2[C@@H]1O[C@@H]2COP(=O)([O-])O[C@H]2[C@H]1OC(=O)CCC.CCCC(=O)Nc1ncnc2c1ncn2[C@@H]1O[C@@H]2COP(=O)([O-])O[C@H]2[C@H]1OC(=O)CCC.[Ca+2] [calcium dibutyryladenosine cyclophosphate] | 95.8% and 96.2% and 95.2% | 3.8% and 4.1% and 4.0% | 95.5% and 96.1% and 95.3% | 3.7% and 4.2% and 4.1% | 95.6% and 96.0% and 95.1% | 3.8% and 4.1% and 4.3% | 95.5% and 95.9% and 95.0% | 3.7% and 4.0% and 4.2% | 95.3% and 95.8% and 94.9% | 4.0% and 4.3% and 4.4% | 95.8% and 96.2% and 95.2% | 3.8% and 4.1% and 4.0% | 95.3% and 95.8% and 95.0% | 3.9% and 4.0% and 4.1% | 95.1% and 95.4% | 4.0% and 4.1% | 94.9% and 95.0% and 94.7% | 4.2% and 4.3% | 94.5% and 94.7% and 94.3% | 4.5% and 4.7% and 4.6%
3 | CCCC(=O)Nc1ncnc2c1ncn2[C@@H]1O[C@@H]2COP(=O)([O-])O[C@H]2[C@H]1OC(=O)CCC.CCCC(=O)Nc1ncnc2c1ncn2[C@@H]1O[C@@H]2COP(=O)([O-])O[C@H]2[C@H]1OC(=O)CCC.[Ca+2] [Anhydrouscalcium dibutyryladenosine cyclophosphate solids] [anhydrous calcium dibutyryladenosine cyclophosphate, reference compound] | 954% | 4.3% | 95.0% | 4.6% | – | 4.8% | 94.4% | 5.2% | 94.1% | 5.4% | – | 4.3% | 94.8% | 4.9% | 94.2% | 5.5% | 93.5% | 6.0% | 93.0% | 6.7%
